Reference: patent US12023319B2, “Carboxylic acid aromatic amides” (priority 2016, dated 2024)
“And” between values parts separate entries of the source, which are not always exact repeats. Equal values may be shown once.

How the values were obtained:
[1] = test system: female Sprague Daley rats; assay: Cyclophosphamide-induced overactive bladder and cystitis (rats); assay type: in vivo, rat
Description: 12. Cyclophosphamide-Induced Overactive Bladder and Cystitis (Rats)
The aim of this study was to test the efficacy of Compound Examples on overactive bladder as well as on interstitial cystitis and bladder pain syndrome in cyclophosphamide-treated rats.
The experimental setup is adapted to a previous described protocol (Lecci A et al, Br J Pharmacol 130: 331-38, 2000).
Strong presence and target induction of BDKRB1 in comparison to BDKRB2 has been verified by gene expression analysis in bladders removed from rats after cyclophosphamide (100 mg/kg and 150 mg/kg i.p.) induction in contrast to bladders of naïve, untreated rats. Immunohistochemistry confirmed the presence of BDKRB1 in bladders of rats after model induction, too.
Briefly, female Sprague Daley rats (˜200 g) were housed under normal conditions for laboratory rats in a 12:12-h light:dark cycle. Rats have been weighed, the tested Compound Examples were dissolved in relevant vehicle (e.g. DMSO/Water) (5/95) (v/v) and have been administrated by oral gavage in different concentrations one hour before application of cyclophosphamide (150 mg/kg) by i.p. injection. Additional 1.5 hours after cyclophosphamide administration each rat was transferred to a metabolic cage and voiding frequency has been recorded for the next 15 hours. Total amount of urine (ml) was collected via a plastic tube attached to the metabolic cages. The urine collecting tube was connected to a weight-sensitive sensor and a pressure transducer connected via an amplifier (ADIstruments) to the data acquisition software program (LabChart, ADInstruments) and a computer. […] At the end of the experiment rats have been weighed and killed under isoflurane anaesthesia and bladders have been removed and weighed. The bladders' wet weight was normalized to 100 g of body weight of each rat and analysis has been performed using GraphPad Prism 7 program.

Male Sprague-Dawley rats = assay: Rat STZ model for diabetic neuropathy (cold plate, warm plate, paw pressure, SNCV); assay type: in vivo; conditions: for Latency in Cold plate / Latency in Warm plate / Paw pressure: STZ rats; for Latency in Cold plate / Latency in Warm plate: Day 10, individual animals; for Paw pressure: Day 21, individual animals
Procedure: 7. Rat STZ Model for Diabetic Neuropathy (Diabetic Neuropathic Pain, Diabetes Induced Nerve Degeneration)
The streptozotocin (STZ) diabetic rat is the most extensively studied animal model of diabetic neuropathy. The animals develop rapidly allodynia and hyperalgesia.
Male Sprague-Dawley rats (˜200 g) were used. They were rendered diabetic by intravenous injection of streptozotocin (55 mg/kg; day 0). Four days (day 4) later, diabetes was confirmed in STZ-injected rats by obtaining a blood sample from the tail vein and by measuring the glucose concentration using a glucose monitor. Only STZ-treated rats with plasma-glucose>260 mg/dl were deemed “diabetic”. The body weight of rats was recorded on daily basis from day 4 to 40.
72 animals were randomly assigned to different groups (12 rats per group).
Compound example 3 was prepared in 10% DMSO in PBS (v/v). […] The treatment was performed on daily basis (twice a day: morning and afternoon) from day 4 until day 40. On the day where behavioral measures are performed, compound or vehicle was given 60 min prior the assessment. On the day where electrophysiological measure was performed, treatment was performed after the assessment.
For positive control regarding analgesia, morphine was dissolved in 0.9% NaCl, and administrated subcutaneously (s.c.) at the dose of 3 mg/kg 45 min prior the tests.
Experimental Plan: • Day 0: induction of diabetes by injection of STZ for all groups except the control group injected with the STZ vehicle • Day 4: glycemia monitoring for all groups and start of the treatment for all groups, except the morphine group. On day 4 rats received only the evening treatment. • Day 10: cold and warm allodynia test for all groups. Treatment is given 60 min prior to the assessment. On that day, the time between the morning and the evening treatment was reduced. • Day 21: Mechanical hyperalgesia test for all groups. Compound or vehicle was given 60 min prior to the assessment. On that day, the time between the morning and the evening treatment was reduced. • Day 22: Termination of rats in the morphine group. • Day 25-26: measurement of sensory nerve conduction velocity (SNCV). On that day, rats only received the evening treatment. • Day 39-40: measurement of sensory nerve conduction velocity (SNCV). On that day, rats only received the evening treatment. • Day 41: skin biopsy from all rats (histology processing and immunostaining of skin biopsy from 7 rats per group take about 4 weeks).
Cold Plate Test on Day 10
The animals were placed into a glass cylinder on a cold platform (0-1° C.). The latency before the first reaction (brisk move of the paw, little leaps) was recorded with a maximal time of 30 s.
Warm Plate Test on Day 10
The animals were placed into a glass cylinder on a hot plate adjusted to 42° C. The latency of the first reaction was recorded (paw lifting or licking, leaps or a jump to escape the heat). Results can be seen in FIG. 8 and table 6.
Paw pressure test is used to assess the hyperalgesia of animals in response to noxious mechanical stimulus. The nociceptive flexion reflex was quantified using the Randall-Selitto paw pressure device (Bioseb, France), which applies a linearly increasing mechanical force to the dorsum of the rat's hind paw. The mechanical nociceptive threshold is defined as the force in grams at which the rat withdraws its paw. The cut off pressure was set to 250 g.
Electrophysiological Measurements (SNCV)
Electrophysiological recordings of SNCV were performed using a Keypoint Electromyograph (EMG) (Medtronic, France). Rats were anaesthetized by intraperitoneal injection of 60 mg/kg ketamine chlorhydrate and 4 mg/kg xylazine. SNCV was recorded in the tail. Electrodes were placed as follows: The recording needle electrode was inserted near the base of the tail and stimulating needle electrode is placed about 50 mm away from the recording electrode towards the extremity of the tail. […]

O=C(O)c1cc(NC(=O)C2(c3ccc(C(F)(F)F)cc3F)CC2)ccc1-c1cnn(C2CCC2)c1 [Example 3, 2-(1-Cyclobutyl-1H-pyrazol-4-yl)-5-[({1-[2-fluoro-4-(trifluoromethyl)phenyl]cyclopropyl}carbonyl)amino]benzoic acid]
bladder weight normalized to 100 g of body weight ([1]; 60 mg/kg, compared to vehicle treatment, FIG. 11): significantly reduced | number of micturitions/hour ([1]; preventive single gavage 15 mg & 60 mg/kg, cyclophosphamide 150 mg/kg i.p., FIG. 9): efficacy on reducing | AUC during the plateau phase of the micturition (4-10 hours after transfer to metabolic cages) ([1]; preventive single gavage, both tested dosages 15 mg & 60 mg/kg, FIG. 10): significantly reduced | effects in all endpoints (warm/cold/mechanical) of neuropathic pain (Male Sprague-Dawley rats; STZ diabetic rats, p.o. twice a day from day 4, tests on day 10 and day 21): significant effects | Latency in Cold plate (Male Sprague-Dawley rats; 3 mg/kg, 3 mg/kg): 14.39 s and 14.46 s and 22.78 s and 15.84 s and 16.87 s and 16.18 s and 21.38 s and 20.52 s and 17.93 s and 15.23 s and 26.66 s and 23.47 s | Latency in Warm plate (Male Sprague-Dawley rats; 3 mg/kg, 3 mg/kg): 19.71 s and 21.41 s and 22.31 s and 20.16 s and 14.49 s and 17.12 s and 22.29 s and 17.89 s (2×) and 23.35 s and 24.72 s and 21.04 s | Paw pressure (Male Sprague-Dawley rats; 3 mg/kg, 3 mg/kg): 125 g (3×) and 150 g (2×) and 105 g (4×) and 115 g and 140 g and 100 g | Latency in Cold plate (Male Sprague-Dawley rats; 15 mg/kg, 15 mg/kg): 22.94 s and 18.19 s and 23.62 s and 18.66 s and 20.23 s and 19.51 s and 23.02 s and 17.08 s and 24.66 s and 24.25 s and 20.00 s | Latency in Warm plate (Male Sprague-Dawley rats; 15 mg/kg, 15 mg/kg): 21.21 s and 17.56 s and 30.00 s and 23.09 s and 23.47 s and 19.44 s and 28.47 s and 15.88 s and 24.82 s and 20.31 s and 27.35 s | Paw pressure (Male Sprague-Dawley rats; 15 mg/kg, 15 mg/kg): 100 g and 125 g (2×) and 135 g (2×) and 120 g and 110 g (3×) and 85 g and 105 g | Latency in Cold plate (Male Sprague-Dawley rats; 60 mg/kg, 60 mg/kg): 20.21 s and 15.60 s and 17.29 s and 19.84 s and 14.52 s and 13.66 s and 22.28 s and 24.12 s and 21.12 s and 17.48 s and 22.45 s and 16.59 s | Latency in Warm plate (Male Sprague-Dawley rats; 60 mg/kg, 60 mg/kg): 17.88 s and 24.69 s and 21.32 s and 18.69 s and 21.23 s and 28.84 s and 18.84 s and 30.00 s and 23.02 s and 20.56 s and 26.94 s and 20.31 s | Paw pressure (Male Sprague-Dawley rats; 60 mg/kg, 60 mg/kg): 105 g and 165 g and 95 g and 115 g (3×) and 140 g and 120 g and 110 g (3×) and 190 g
